Values joined by “and” are separate entries in the source; they are usually repeats but may differ in a detail not shown here. Equal entries are not always repeated.
Assays:
[1] = system: wild type Thielavia (TaLcc) laccase; type: biochemical, Thielavia arenaria; conditions: pH 5
[2] = system: wild type Chaetomium (CtL) laccase; type: biochemical, Chaetomium thermophilum; conditions: pH 5
CtLcc1 = type: biochemical, Chaetomium thermophilum
Method: (§1) The inhibition effect of different compounds on the activity of the laccases was determined as described in Example 2. except with Talcc4, with which the inhibition was analyzed using spectroscopic activity assay.

TaLcc1 = type: biochemical, Thielavia arenaria
Method: as §1

TaLcc2 = type: biochemical, Thielavia arenaria
Method: as §1

[3] = target: T1, Thielavia arenaria ALKO4197 laccase TaLcc1, recombinant, SEQ ID NO: 39 (Canariomyces arenarius, UniProt F6N9E7); type: biochemical; conditions: 40 mM MES buffer, pH 6, 25° C.
T1 construct: plasmid pALK1342 (DSM 15484)
Method: (§2) On syringaldazin and DMP 40 mM MES buffer, pH 6 was used. All activity assays were carried out at 25° C. Kinetic parameters were estimated by a nonlinear regression curve fit. The values were compared to those of Melanocarpus albomyces MaL, laccase.

[4] = system: Thielavia arenaria ALKO4197 laccase TaLcc3, recombinant, SEQ ID NO: 43; assay: Kinetic parameters of TaLcc3; type: biochemical; conditions: 40 mM MES buffer, pH 6, 25° C.
Method: as §2

[5] = system: Thielavia arenaria ALKO4197 laccase TaLcc4, recombinant, SEQ ID NO: 45; assay: Kinetic parameters of TaLcc4; type: biochemical; conditions: 40 mM MES buffer, pH 6, 25° C.
Method: as §2

[6] = target: T2, Melanocarpus albomyces laccase (MaL) (Melanocarpus albomyces, UniProt Q70KY3); assay: Kinetic parameters of MaL; type: biochemical; conditions: 40 mM MES buffer, pH 6, 25° C.
T2 sequence (Q70KY3 51-609): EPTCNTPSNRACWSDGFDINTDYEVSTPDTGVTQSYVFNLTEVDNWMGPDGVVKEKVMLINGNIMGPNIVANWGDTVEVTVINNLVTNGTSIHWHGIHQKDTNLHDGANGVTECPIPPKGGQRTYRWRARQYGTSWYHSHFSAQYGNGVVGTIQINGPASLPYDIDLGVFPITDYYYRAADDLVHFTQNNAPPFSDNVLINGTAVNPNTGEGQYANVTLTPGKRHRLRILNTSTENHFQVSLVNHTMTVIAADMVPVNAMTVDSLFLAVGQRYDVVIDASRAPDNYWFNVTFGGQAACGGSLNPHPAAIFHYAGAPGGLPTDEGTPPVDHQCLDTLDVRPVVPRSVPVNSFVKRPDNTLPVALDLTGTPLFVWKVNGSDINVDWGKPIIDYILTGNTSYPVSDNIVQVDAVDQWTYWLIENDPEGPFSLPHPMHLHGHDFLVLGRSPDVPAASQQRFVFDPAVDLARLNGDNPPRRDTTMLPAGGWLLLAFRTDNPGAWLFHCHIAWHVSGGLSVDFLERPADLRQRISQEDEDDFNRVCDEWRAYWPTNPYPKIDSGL
Method: as §2

T1 sequence (F6N9E7 entry or part of it): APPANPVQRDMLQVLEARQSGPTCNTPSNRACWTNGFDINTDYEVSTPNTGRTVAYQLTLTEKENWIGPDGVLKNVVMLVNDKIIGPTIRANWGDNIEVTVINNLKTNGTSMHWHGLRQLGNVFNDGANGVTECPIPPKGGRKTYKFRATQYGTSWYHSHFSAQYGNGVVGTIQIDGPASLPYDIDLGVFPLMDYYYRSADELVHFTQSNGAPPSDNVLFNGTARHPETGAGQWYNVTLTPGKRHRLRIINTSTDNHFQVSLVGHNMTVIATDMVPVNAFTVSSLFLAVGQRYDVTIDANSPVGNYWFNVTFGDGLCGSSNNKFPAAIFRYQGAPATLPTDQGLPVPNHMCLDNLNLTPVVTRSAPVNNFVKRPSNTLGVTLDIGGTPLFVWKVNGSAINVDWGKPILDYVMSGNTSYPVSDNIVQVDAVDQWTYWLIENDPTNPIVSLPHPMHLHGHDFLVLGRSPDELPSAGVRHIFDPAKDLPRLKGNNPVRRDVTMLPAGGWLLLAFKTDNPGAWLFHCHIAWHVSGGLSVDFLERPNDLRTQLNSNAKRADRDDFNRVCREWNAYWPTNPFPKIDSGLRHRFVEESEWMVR

| Structure (SMILES) | Inhibition (%) TaLcc [1] | Inhibition (%) CtL [2] | Inhibition (%) CtLcc1 (CtLcc1) | Inhibition (%) TaLcc1 (TaLcc1) [%] | Inhibition (%) TaLcc2 (TaLcc2) | Km [3] [µM] | kcat [3] [s⁻¹] | Km [4] [µM] | kcat [4] [s⁻¹] | Km [5] [µM] | kcat [5] [s⁻¹] | kcat [6] [s⁻¹] |
| --- | --- | --- | --- | --- | --- | --- | --- | --- | --- | --- | --- | --- |
| [Cl-].[Na+] [NaCl] | 35% and 42% | 0% and 10% | 0% and 10% | 0 | 20% and 30% |  |  |  |  |  |  |  |
| COc1cc(C=NN=Cc2cc(OC)c(O)c(OC)c2)cc(OC)c1O [Syringaldazin, syringaldazin] |  |  |  |  |  | 4.3 | 32.33 | 4.3 | 0.2 | 115 | 15.5 | 78.5 |

From US7732178B2, “Laccase enzymes and their uses” (AB Enzymes Oy, priority 2004, dated 2010)
